Measurements published in patent US7585877B2, “Aminophenyl derivatives as selective androgen receptor modulators” (Acadia Pharmaceuticals, Inc., priority 2005, dated 2009).
Counter-ions that a name gives are not always drawn. Like-named read-outs stand apart in the source and are kept apart here.

Key:
Androgen AR receptor = target: T1, Androgen AR receptor (Homo sapiens, UniProt P10275); experiment: Receptor Selection and Amplification Technology (R-SAT) functional receptor assay; type: cell-based; conditions: for Emax: read-out: % Efficacy
T1 construct: expressed in transfected cells; host or cells: NIH3T3 cells
T1 sequence (P10275 1-920): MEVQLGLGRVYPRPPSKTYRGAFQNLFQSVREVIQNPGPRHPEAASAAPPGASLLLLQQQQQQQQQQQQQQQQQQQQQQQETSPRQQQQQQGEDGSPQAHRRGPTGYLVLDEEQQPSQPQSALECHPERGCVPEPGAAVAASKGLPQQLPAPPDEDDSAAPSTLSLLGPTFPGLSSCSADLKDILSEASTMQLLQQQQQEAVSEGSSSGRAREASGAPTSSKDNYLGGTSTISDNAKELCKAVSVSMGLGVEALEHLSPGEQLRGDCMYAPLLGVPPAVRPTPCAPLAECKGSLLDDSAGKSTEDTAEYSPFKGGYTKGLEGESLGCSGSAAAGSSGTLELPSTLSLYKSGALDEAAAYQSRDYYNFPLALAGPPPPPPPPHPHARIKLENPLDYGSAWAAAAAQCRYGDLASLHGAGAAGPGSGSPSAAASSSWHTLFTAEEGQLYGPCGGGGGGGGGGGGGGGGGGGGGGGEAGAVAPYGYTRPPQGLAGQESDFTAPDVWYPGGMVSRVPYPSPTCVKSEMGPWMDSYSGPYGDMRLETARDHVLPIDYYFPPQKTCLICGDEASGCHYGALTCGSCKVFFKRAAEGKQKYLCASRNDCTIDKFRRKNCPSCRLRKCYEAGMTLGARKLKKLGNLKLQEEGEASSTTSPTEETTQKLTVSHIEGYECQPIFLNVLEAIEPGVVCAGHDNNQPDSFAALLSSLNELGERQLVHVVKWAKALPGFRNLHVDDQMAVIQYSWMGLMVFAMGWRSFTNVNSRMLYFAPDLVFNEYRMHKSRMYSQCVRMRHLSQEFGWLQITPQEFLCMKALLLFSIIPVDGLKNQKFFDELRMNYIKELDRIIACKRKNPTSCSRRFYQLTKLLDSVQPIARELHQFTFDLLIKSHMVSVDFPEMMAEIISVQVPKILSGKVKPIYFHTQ
Method: The functional receptor assay, Receptor Selection and Amplification Technology (R-SAT™), was used with minor modifications from the procedure described previously (Brann, M. R., U.S. Pat. No. 5,707,798, which is hereby incorporated herein by reference in its entirety) to screen compounds for efficacy at the Androgen AR receptor. Briefly, NIH3T3 cells were grown in roller bottles to 70-80% confluence. Cells were then transfected for 12-16 h with plasmid DNAs using Polyfect (Qiagen Inc.) as per the manufacturer's protocol. R-SAT assays were typically performed by transfecting 30 ug/bottle of receptor and 50 ug/bottle of β-galactosidase plasmid DNA. All receptor and helper constructs used were in mammalian expression vectors. Helpers are defined as signaling molecules that modulate both ligand-dependent and/or ligand-independent function of the AR receptor, typically co-activators.
NIH3T3 cells were transfected for 12-16 h, then trypsinized and frozen in DMSO. Frozen cells were later thawed, plated at 10,000-40,000 cells per well of a 96 well plate containing drug. Cells were then grown in a humidified atmosphere with 5% ambient CO2 for five days. Media was then removed from the plates and marker gene activity was measured by the addition of the β-galactosidase substrate o-nitrophenyl β-D-galactopyranoside (ONPG, in PBS with 5% NP-40). The resulting colorimetric reaction was measured in a spectrophotometric plate reader (Titertek Inc.) at […]. All data were analyzed using the computer program XLFit (IDBSm).

[1] = test system: Rat luteinizing hormone (LH) plasma levels; experiment: In vivo activity in castrated rats: plasma luteinizing hormone (ELISA); conditions: castrated rats (FIG. 4)
Method: (§1) Test compounds of formula I are administered p.o. daily for two weeks to castrated male Sprague Dawley rats (n=3). The effects of the test compounds (1, 3, 10, 30 mg/kg) are compared to testosterone propionate (1 and 3 mg/kg s.c.; positive control) and vehicle (10% Tween80; negative control). Blood and wet weights of prostate gland and seminal vesicle are measured after sacrifice that occurs 24 hours after the last dose. Blood is collected in heparin collection tubes after sacrifice that occurred 24 hours after the last dose. Blood is centrifuged and plasma collected and plasma samples frozen.
Rat luteinizing hormone (LH) plasma levels are determined using an enzyme linked immunoabsorbent assay (ELISA) from Amersham as per manufacturer's instructions. The solid phase assay is based on the competition between unlabeled rLH and a fixed quantity of biotin labelled rLH for a limited amount of rLH specific antibody. A conjugate streptavidin/peroxidase allows for signal amplification and detection in presence of the substrate.

[2] = test system: castrated male Sprague Dawley rats; experiment: In vivo activity in castrated rats: wet tissue weights; design: species or system rat
Method: as §1

[3] = R-SAT, transfected NIH3T3 cells

What does the source list for Cc1c(N2[C@@H]3CC[C@H]2C[C@@H](O)C3)ccc(C#N)c1Cl [165RL90, 2-Chloro-4-(3-endo-hydroxy-8-azabicyclo[3.2.1]octan-8-yl)-3-methylbenzonitrile, hydrochloride]?
EC50 (Androgen AR receptor): 2 nM; Emax (Androgen AR receptor; [3]): 81%

How did the Emax (Androgen AR receptor; [3]) turn out when Cc1c(N2[C@@H]3CC[C@H]2C[C@@H](O)C3)ccc([N+](=O)[O-])c1Cl [173FBA73bL, endo-8-(3-chloro-2-methyl-4-nitrophenyl)-8-azabicyclo[3.2.1]octan-3-ol] was run?
Its Emax is 80%.

And the EC50 (Androgen AR receptor; R-SAT, transfected NIH3T3 cells, read-out: pEC50 (converted))?
The EC50 was 3.16 nM.

Which results are given for Cc1c(N2[C@@H]3CC[C@H]2C[C@@](C)(O)C3)ccc(C#N)c1Cl [198RL26, 2-Chloro-4-(3-endo-hydroxy-3-exo-methyl-8-azabicyclo[3.2.1]oct-8-yl)-3-methylbenzonitrile hydrochloride]?
EC50 (Androgen AR receptor): 1.58 nM; Emax (Androgen AR receptor; [3]): 79%; plasma LH levels ([1]; 10 mg/kg p.o. for 14 days): complete reversal; plasma LH levels ([1]; various doses, p.o. for 14 days): dose-dependent suppression of plasma LH levels; wet tissue weights (prostate, seminal vesicle, levator ani muscle) ([2]; 3 mg/kg daily s.c. (so in the source) for two weeks, castrated rats): did not appear to significantly alter wet tissue weights; dose relative to TP at which negative side effects (increased seminal vesicle and prostate size) become evident ([2]; castrated rats, two weeks daily dosing): at least 100 × of TP; wet tissue weights (prostate, seminal vesicle, levator ani muscle) ([2]; higher doses (3 and 10 mg/kg) daily, castrated rats): appeared to significantly increase wet tissue weights, however, not to the extent of TP

For CCC(=O)O[C@H]1CC[C@H]2[C@@H]3CCC4=CC(=O)CC[C@]4(C)[C@H]3CC[C@]12C [testosterone propionate, reference compound], which “plasma LH levels” value ([1]; 1 mg/kg, s.c. for 14 days) is on record?
The value was “restored LH levels to those obtained in naive rats”.

What about the “prostate wet tissue weight as compared to vehicle treatment” value ([2]; 1 mg/kg daily s.c. for two weeks, castrated rats (FIG. 1)) of the same compound?
Its value is “significant increases”.

What about the “seminal vesicle wet tissue weight as compared to vehicle treatment” value ([2]; 1 mg/kg daily s.c. for two weeks, castrated rats (FIG. 2)) of the same compound?
The value was “significant increases”.

And the “levator ani muscle wet tissue weight as compared to vehicle treatment” value ([2]; 1 mg/kg daily s.c. for two weeks, castrated rats (FIG. 3))?
Its value is “significant increases”.
